Where a name gives a salt, the structure may show the parent alone. Read-outs that look alike come from different tables or passages of the source.
Tests used:
[1] = target: class A β-lactamase TEM-1 (Escherichia coli, UniProt P62593); assay: β-Lactamase inhibition, IC50 determination (nitrocefin, spectrophotometric); format: biochemical, E. Coli
Method: (§1) IC50 Determination for the Penem Inhibitor
(§2) β-Lactamase inhibitory activity of the penem inhibitors was determined spectrophotometrically as described by Bush et al., [Bush, K., Macalintal, C., Rasmussen, B. A., Lee, V. and Yang, Y. Antimicrobial Agents and Chemotherapy 1993, 37, 851]. Homogeneously purified class A β-lactamases TEM-1 from E. Coli and Imi-1 from Enterobacter cloacae, class B enzyme CcrA from Bacteroides fragilis and class C enzyme AmpC from Enterobacter cloaca were employed in the assay. The enzyme concentrations for TEM-1, Imi-1, CcrA and AmpC were 4.3, 7.1, 1.2 and 2.1 nM, respectively. A wide range of inhibitor concentrations were prepared in 50 mM PO4, pH 7.0 to include the possible IC50 values. The substrate used to initiate the enzyme reaction was nitrocefin at 50 μg/ml in the same buffer as the inhibitor. Initially the enzyme and inhibitor (20 μl each) were preincubated for 10 minutes at 25° C. prior to the addition of 160 μl volume of nitrocefin. Initial rates of hydrolysis were monitored for 5 minutes at 495 nm using a Molecular Devices Spectra Max 250 with kinetic protocol of SoftMax Program. Readings from the Spectra Max 250 were exported and transferred to Microsoft Excel. The percent of inhibition of each inhibitor concentration was calculated based on the control enzyme activity. The inhibitor concentration that caused a 50% reduction in the enzymatic activity (IC50) was determined graphically.

class B enzyme CcrA = class B enzyme CcrA (Bacteroides fragilis, UniProt P25910); assay: as above; format: biochemical; conditions: read-out: IC50 (nM) Class B Ccr
Chain of class B enzyme CcrA (P25910 19-249): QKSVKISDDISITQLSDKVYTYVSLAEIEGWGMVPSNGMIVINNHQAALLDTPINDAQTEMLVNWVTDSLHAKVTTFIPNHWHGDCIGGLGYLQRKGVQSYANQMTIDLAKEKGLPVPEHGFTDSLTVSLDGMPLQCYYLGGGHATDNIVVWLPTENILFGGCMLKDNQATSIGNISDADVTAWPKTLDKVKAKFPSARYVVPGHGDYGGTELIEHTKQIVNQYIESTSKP
Method: as §1, §2

[2] = target: class A β-lactamase Imi-1 (Enterobacter cloacae, UniProt Q46991); assay: as above; format: biochemical
Chain of class A β-lactamase Imi-1 (Q46991 entry or part of it): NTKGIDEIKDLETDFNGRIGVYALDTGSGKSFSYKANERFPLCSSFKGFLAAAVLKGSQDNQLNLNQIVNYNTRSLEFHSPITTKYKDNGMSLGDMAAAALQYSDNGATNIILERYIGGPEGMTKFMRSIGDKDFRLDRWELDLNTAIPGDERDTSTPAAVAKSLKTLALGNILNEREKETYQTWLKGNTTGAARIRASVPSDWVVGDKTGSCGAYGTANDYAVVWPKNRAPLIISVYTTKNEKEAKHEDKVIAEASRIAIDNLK
Method: as §1, §2

[3] = tested on: Clinical isolates that have been adapted to cause infection in mice; assay: In vivo antibacterial protection (7 day survival of infected mice, ED50); set-up: species or system mice strain CD-1; conditions: Mus musculus, 168 h
Text: In Vivo Antibacterial Protection
Female mice strain CD-1, approximately 18-22 grams, were received from Charles River Laboratories and quarantined 7 days prior to use. In addition, mice may be rendered neutropenic using cytoxan for particular studies.
Clinical isolates that have been adapted to cause infection in mice, are used in the experiment, including infections with strains of E. coli, K. pneumoniae, M. morganii, E. cloacae, S. marcescens, C. freundii, staphylococci, streptococci, P. aeruginosa and N. gonorrhoeae.
Mice are challenged by injecting 0.5 ml intraperitoneally or 0.05 ml intranasally of a predetermined bacterial inoculum suspended in broth, saline or hog gastric mucin (supplemented with dried bovine hemoglobin for N. gonorrhoeae). […] Antibacterial doses (dose concentration prepared by two fold serial dilutions of the antibiotic) are dissolved or suspended in 0.2% aqueous agar or methocel, phosphate buffered saline or an adjuvant are administered orally, subcutaneously or intravenously in the following manner: • a) Orally or subcutaneously: Dose volume of 0.5 ml administered ½ hr after infection. A second dose may be administered 3 hr. after infection for treatment of infections with more virulent organisms. • b) Intravenously: Dose volume of 0.2 ml, administered ½ hr. after infection. For the treatment of infections with more virulent organisms, more doses, up to 48 hr may be administered. (Intravenous dosing will not exceed 3 doses/24 hr period.) • c) Oral pretreatment: Under special circumstances, the pH of the stomach needs to be adjusted in order to increase the gastric stability of the antibiotic. For this purpose, 0.5 ml of phosphate buffered saline (pH7.8, 0.06M) (or specific approved adjuvant) is administered orally ½ hr after infection, followed 5 minutes later by 0.5 ml of antibiotic (also orally) contained in phosphate buffered saline (pH7.8, 0.06M). Animal Species
A detailed explanation as to the number of animals needed for the determination of in vivo efficacy follows: • A) Novel antibiotics are tested at 5 different dose levels with 5 mice per dose level at each of three routes of administration (oral, subcutaneous and intravenous). […] This would require 25 mice/route with 3 routes/antibiotic or 75 mice per novel compound tested. One to two novel antibiotics will be tested per experiment (75-150 mice) • B) The effectiveness of the new compound must be compared to that of a standard, or antibiotic of known effectiveness. Known or previously tested antibiotics are tested at 5 dose levels with 5 mice per dose level by a single route of administration, for a total of 25 mice/antibiotic. Usually 3-6 antibiotics will be tested per experiment. (75-150 mice). • C) Untreated controls—In each of the above tests, untreated animals are infected with 3 different concentrations of bacterial inoculum with 10 mice per concentration (30 mice total in each and every test). These untreated controls are used to determine and maintain the infection level between 10-100 LD50s as required for test to test comparison and validity. Determination of Protective Effects of Antibacterial Agents:
The protective effects of the antibacterial agent(s) are measured by the survival of the infected untreated as compared to the treated animals. For this determination, animals are observed for 7 days after treatment. A census of survivors is taken twice daily and at that time dead as well as moribund animals are removed. The 7 day survival ratio from three separate tests are pooled for estimation of median effective dose (ED50) by computerized program for probit analysis (Cleeland, R. and E. Squires. 1991. Evaluation of New Antimicrobials in Vitro and in Experimental Animal Infections. In Antibiotics in Laboratory Medicine”, 3rd. ed., edited by Victor Lorian. Willams and Wilkins Baltimore, Md. pp. 752-783). […]

class C enzyme AmpC = class C enzyme AmpC (Enterobacter cloacae, UniProt P05364); assay: biochemical; set-up: species or system Enterobacter cloaca
Chain of class C enzyme AmpC (P05364 21-381): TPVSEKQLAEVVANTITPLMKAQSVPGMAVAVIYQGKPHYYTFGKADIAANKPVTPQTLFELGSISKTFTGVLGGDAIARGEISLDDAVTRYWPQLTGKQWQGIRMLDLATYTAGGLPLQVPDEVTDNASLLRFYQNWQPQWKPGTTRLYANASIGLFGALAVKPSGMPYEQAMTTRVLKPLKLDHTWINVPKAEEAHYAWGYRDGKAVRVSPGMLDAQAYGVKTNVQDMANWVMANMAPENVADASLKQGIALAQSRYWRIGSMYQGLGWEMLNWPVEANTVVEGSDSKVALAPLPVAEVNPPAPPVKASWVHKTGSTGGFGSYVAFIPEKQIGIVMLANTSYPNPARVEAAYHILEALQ
Method: as §1, §2

[4] = tested on: S. Marcescens GC1781 Sme-1 + Ampc; assay: Antimicrobial susceptibility testing, microbroth dilution MIC of piperacillin + inhibitor; format: cell-based; conditions: piperacillin combined with constant 4 μg/ml inhibitor; Inc: 35° C. for 18 hours
Method: (§3) Antimicrobial susceptibility testing. The in vitro activities of the antibiotics were determined by the microbroth dilution method as recommended by the National Committee for Clinical Laboratory Standards (NCCLS). (NCCLS. 2000. Methods for Dilution Antimicrobial Susceptibility Tests for Bacteria That Grow Aerobically; Approved Standards: M7-A5, vol. 19. National Committee for Clinical Laboratory Standards, Villanova, Pa.). Mueller-Hinton it broth (MHBII)(BBL Cockeysville, Md.), was used for the testing procedure. Microtiter plates containing 50 μl per well of two-fold serial dilutions of piperacillin combined with a constant amount (4 μg/ml) of a B-lactamase inhibitor (final concentration) were inoculated with 50 μl of inoculum to yield the appropriate density (10^5 CFU/ml) in 100 μl. The plates were incubated for 18-22 hours at 35° C. in ambient air.

E. Coli GC2894 (Ampc) = assay: as above; format: cell-based; conditions: piperacillin combined with constant 4 μg/ml inhibitor; Inc: 35° C. for 18 hours
Method: as §3

E. Cloacae GC1477 (Ampc) = assay: as above; format: cell-based; conditions: piperacillin combined with constant 4 μg/ml inhibitor; Inc: 35° C. for 18 hours
Method: as §3

E. Coli GC2844 = assay: as above; format: cell-based; conditions: piperacillin combined with constant 4 μg/ml inhibitor; Inc: 35° C. for 18 hours
Method: as §3

E. Coli GC2847 (TEM-1) = assay: as above; format: cell-based; conditions: piperacillin combined with constant 4 μg/ml inhibitor; Inc: 35° C. for 18 hours
Method: as §3

E. Coli GC2920 (IRT-2) = assay: as above; format: cell-based; conditions: piperacillin combined with constant 4 μg/ml inhibitor; Inc: 35° C. for 18 hours
Method: as §3

[5] = tested on: P. aeruginos GC1764 (Ampc); assay: as above; format: cell-based; conditions: piperacillin combined with constant 4 μg/ml inhibitor; Inc: 35° C. for 18 hours
Method: as §3

E. Coli GC2203 = assay: as above; format: cell-based; conditions: piperacillin combined with constant 4 μg/ml inhibitor; Inc: 35° C. for 18 hours
Method: as §3

[6] = enzyme 1.2 nM, 10 min preincubation at 25° C., nitrocefin 50 μg/ml, 50 mM PO4, pH 7.0
[7] = Ratio of Piperacillin Inhibitor 4:1, read-out: ED50
[8] = enzyme 4.3 nM, 10 min preincubation at 25° C., nitrocefin 50 μg/ml, 50 mM PO4, pH 7.0, read-out: IC50 (nM) Class A TEM-1
[9] = enzyme 7.1 nM, 10 min preincubation at 25° C., nitrocefin 50 μg/ml, 50 mM PO4, pH 7.0, read-out: IC50 (nM) Class A Imi
[10] = enzyme 2.1 nM, 10 min preincubation at 25° C., nitrocefin 50 μg/ml, 50 mM PO4, pH 7.0, read-out: IC50 (nM) Class C AmpC
[11] = Ratio of Piperacillin Inhibitor 2:1, read-out: ED50

Chain of class A β-lactamase TEM-1 (P62593 24-286 limits assumed): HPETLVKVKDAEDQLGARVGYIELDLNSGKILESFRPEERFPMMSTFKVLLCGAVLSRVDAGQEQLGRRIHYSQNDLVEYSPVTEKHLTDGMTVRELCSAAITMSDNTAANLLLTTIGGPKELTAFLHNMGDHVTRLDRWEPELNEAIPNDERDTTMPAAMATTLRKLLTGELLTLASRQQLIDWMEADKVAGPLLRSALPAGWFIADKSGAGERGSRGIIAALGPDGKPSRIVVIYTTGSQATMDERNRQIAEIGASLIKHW

Row | SMILES | IC50 [1] [nM] | IC50 (class B enzyme CcrA; [6]) [nM] | IC50 [2] [nM] | ED50 [3, 7] [mg/kg] | IC50 (class C enzyme AmpC) [nM] | IC50 [1, 8] [nM] | ED50 [3, 11] [mg/kg] | further results
1 | O=C(O)C1=CS[C@@H]2/C(=C\c3cn4c(n3)nc3n4CCCC3)C(=O)N12 [Example 8, (5R), (6Z)-6-(4,5,6,7-tetrahydro-1,3a,3b,8-tetraaza-cyclopenta[a]indene-2-ylmethylene)-7-oxo-4-thia-1-aza-bicyclo[3.2.0]hept-2-ene-2-carboxylic acid sodium salt] | 2.4 | 450 | 15 | 16 to 64 | 1.4 |  |  | 
2 | CCOC(=O)N1CCc2c(oc3cc(/C=C4/C(=O)N5C(C(=O)[O-])=CS[C@H]45)nn23)C1.[Na+] [Example 33, (5R,6Z)-6-{[6-(ethoxycarbonyl)-5,6,7,8-tetrahydropyrazolo[5′,1′:2,3][1,3]oxazolo[5,4-c]pyridin-2-yl]methylene}-7-oxo-4-thia-1-1-azabicyclo[3.2.0]hept-2-ene-2-carboxylic acid, sodium salt] |  | 160 |  |  |  | 10 |  | Minimal Inhibitory Concentration S. Marcescens GC1781 Sme-1 + Ampc [4]: 2 µg/mL; Minimal Inhibitory Concentration E. Coli GC2894 (Ampc) (E. Coli GC2894 (Ampc)): 64 µg/mL; Minimal Inhibitory Concentration E. Cloacae GC1477 (Ampc) (E. Cloacae GC1477 (Ampc)): >64 µg/mL; Minimal Inhibitory Concentration E. Coli GC2844 (E. Coli GC2844): 2 µg/mL; Minimal Inhibitory Concentration E. Coli GC2847 (TEM-1) (E. Coli GC2847 (TEM-1)): 64 µg/mL; Minimal Inhibitory Concentration E. Coli GC2920 (IRT-2) (E. Coli GC2920 (IRT-2)): 4 µg/mL; Minimal Inhibitory Concentration P. aeruginos GC1764 (Ampc) [5]: >64 µg/mL; Minimal Inhibitory Concentration E. Coli GC2203 (E. Coli GC2203): 2 µg/mL; IC50 [2, 9]: 360 nM; IC50 (class C enzyme AmpC; [10]): 140 nM
3 | COc1ccc2c(c1)sc1nc(/C=C3/C(=O)N4C(C(=O)O)=CS[C@H]34)cn12 [Example 2] |  | 250 | 180 |  | 2.4 | 18 | > 64 | 
4 | O=C(O)C1=CS[C@@H]2/C(=C\c3cn4c(n3)-c3ccccc3C4)C(=O)N12 [Example 12, (5R), (6Z)-6-(5H-Imidazo[2,1-a]isoindol-2-ylmethylene)-7-oxo-4-thia-1-aza-bicyclo[3.2.0]hept-2-ene-2-carboxylic acid sodium salt] | 2.6 | 42 | 6.4 | 50 | 28 |  |  | 
5 | O=C(O)C1=CS[C@@H]2/C(=C\c3cn4c(ccc5ccccc54)n3)C(=O)N12 [Example 4, (5R),(6Z)-6-Imidazo[1,2-a]quinolin-2-ylmethylene-7-oxo-4-thia-1-azabicyclo[3.2.0]hept-2-ene-2-carboxylic acid] | 6 | 900 | 90 |  | 2.1 |  | 32 to 64 | 
6 | CCOc1nc2nc(C=C3C(=O)N4C(C(=O)O)=CSC34)cn2c2c1CCC2 (centres unmarked) [Example 10, 6-(5-ethoxy-7,8-dihydro-6H-3,4,8b-triaza-as-indacen-2-ylmethylene)-7-oxo-4-thia-1-aza-bicyclo[3.2.0]hept-2-ene-2-carboxylic acid] | 48 | 140 | 35 | 55.6 | 5.8 |  |  | 
7 | O=C(O)C1=CS[C@@H]2/C(=C\c3cn4c(n3)sc3cc(F)ccc34)C(=O)N12 [Example 14] | 8.1 |  | 270 |  | 2.4 |  |  | IC50 (class B enzyme CcrA; pH 7): 370 nM; ED50 ([3]; Ratio of Piperacillin Inhibitor not given, read-out: ED50): > 64 mg/kg
8 | O=C(O)C1=CS[C@@H]2/C(=C\c3cn4c(n3)sc3ccccc34)C(=O)N12 [Example 1, (5R,6Z)-6-(Imidazo[2,1-b][1,3]benzothiazol-2-ylmethylene)-7-oxo-4-thia-1-azabicyclo[3.2.0]hept-2-ene-2-carboxylic acid] |  | 350 | 160 |  | 1.4 | 10 | 32 to 64 | 
9 | O=C([O-])C1=CS[C@@H]2/C(=C\c3cc4c(s3)-c3cccnc3SC4)C(=O)N12.[Na+] [Example 21, (5R,6Z)-7-oxo-6-(4H-thieno[2′,3′:45]thiopyrano[2,3-b]pyridin-2-ylmethylene)-4-thia-1-azabicyclo[3.2.0]hept-2-ene-2-carboxylic acid (Sodium salt)] |  | 210 |  |  |  | 11 |  | Minimal Inhibitory Concentration S. Marcescens GC1781 Sme-1 + Ampc [4]: 2 µg/mL; Minimal Inhibitory Concentration E. Coli GC2894 (Ampc) (E. Coli GC2894 (Ampc)): 32 µg/mL; Minimal Inhibitory Concentration E. Cloacae GC1477 (Ampc) (E. Cloacae GC1477 (Ampc)): >64 µg/mL; Minimal Inhibitory Concentration E. Coli GC2844 (E. Coli GC2844): 2 µg/mL; Minimal Inhibitory Concentration E. Coli GC2847 (TEM-1) (E. Coli GC2847 (TEM-1)): >64 µg/mL; Minimal Inhibitory Concentration E. Coli GC2920 (IRT-2) (E. Coli GC2920 (IRT-2)): 4 µg/mL; Minimal Inhibitory Concentration P. aeruginos GC1764 (Ampc) [5]: 64 µg/mL; Minimal Inhibitory Concentration E. Coli GC2203 (E. Coli GC2203): 2 µg/mL; IC50 [2, 9]: 580 nM; IC50 (class C enzyme AmpC; [10]): 3.7 nM

— patent US7691842B2, “Tricyclic 6-alkylidene-penems as β-lactamase inhibitors” (Wyeth LLC, priority 2002, dated 2010)
